# According to patent US7049289B1, “Labelled glutamine and lysine analogues” (Amersham PLC, priority 1998, dated 2006):
# The star is where a group is joined. Adamantane1carbonyl = O=C(C12CC3CC(CC(C3)C1)C2)*
# Tests used:
# [1] = molecular target: T1, fibrin (in vitro human plasma clot) (Homo sapiens, UniProt P02671+P02675+P02679); assay: Incorporation into human plasma clots in vitro; format: biochemical; settings: for % specific uptake: % retained (with thrombin) - % retained (no thrombin); for % retained (no thrombin): control without thrombin and calcium chloride (non-specific binding); for % retained (with thrombin): human plasma clot, 60 minutes, ca. 20° C.
# T1 construct: about 400 μl of human plasma containing the radiolabelled substrate; from tissue; host or cells: human plasma, clotted in vitro with added thrombin and calcium chloride
# T1 sequence (P02671 20-644 isoform P02671-2 limits assumed): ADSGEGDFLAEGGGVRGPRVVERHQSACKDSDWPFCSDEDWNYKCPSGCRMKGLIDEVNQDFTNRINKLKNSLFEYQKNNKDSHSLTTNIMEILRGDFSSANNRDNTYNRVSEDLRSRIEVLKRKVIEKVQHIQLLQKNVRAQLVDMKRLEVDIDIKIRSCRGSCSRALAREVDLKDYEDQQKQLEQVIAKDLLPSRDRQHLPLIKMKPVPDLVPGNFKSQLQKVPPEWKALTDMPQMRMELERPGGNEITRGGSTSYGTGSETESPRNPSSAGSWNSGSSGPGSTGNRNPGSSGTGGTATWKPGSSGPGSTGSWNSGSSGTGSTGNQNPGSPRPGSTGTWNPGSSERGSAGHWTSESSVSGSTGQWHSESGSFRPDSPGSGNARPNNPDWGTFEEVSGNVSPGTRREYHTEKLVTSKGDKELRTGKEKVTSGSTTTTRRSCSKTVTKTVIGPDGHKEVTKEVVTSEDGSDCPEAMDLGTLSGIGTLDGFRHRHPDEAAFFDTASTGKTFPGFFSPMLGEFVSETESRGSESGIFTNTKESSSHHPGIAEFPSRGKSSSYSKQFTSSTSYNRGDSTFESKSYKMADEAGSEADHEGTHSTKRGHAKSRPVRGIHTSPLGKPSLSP
# T1 sequence (P02675 45-491 limits assumed): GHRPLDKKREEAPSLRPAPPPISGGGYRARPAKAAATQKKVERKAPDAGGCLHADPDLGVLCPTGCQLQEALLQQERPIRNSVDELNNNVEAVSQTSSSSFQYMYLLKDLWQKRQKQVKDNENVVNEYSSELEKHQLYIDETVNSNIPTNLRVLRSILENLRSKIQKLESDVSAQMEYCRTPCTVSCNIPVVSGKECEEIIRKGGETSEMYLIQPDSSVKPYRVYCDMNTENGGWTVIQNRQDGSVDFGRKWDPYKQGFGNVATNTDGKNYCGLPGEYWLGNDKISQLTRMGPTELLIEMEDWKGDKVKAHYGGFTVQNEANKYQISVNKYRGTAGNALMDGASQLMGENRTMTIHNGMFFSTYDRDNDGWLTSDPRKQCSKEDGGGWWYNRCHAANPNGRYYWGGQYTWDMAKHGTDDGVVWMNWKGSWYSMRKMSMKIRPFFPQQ
# T1 sequence (P02679 27-437 isoform P02679-2 limits assumed): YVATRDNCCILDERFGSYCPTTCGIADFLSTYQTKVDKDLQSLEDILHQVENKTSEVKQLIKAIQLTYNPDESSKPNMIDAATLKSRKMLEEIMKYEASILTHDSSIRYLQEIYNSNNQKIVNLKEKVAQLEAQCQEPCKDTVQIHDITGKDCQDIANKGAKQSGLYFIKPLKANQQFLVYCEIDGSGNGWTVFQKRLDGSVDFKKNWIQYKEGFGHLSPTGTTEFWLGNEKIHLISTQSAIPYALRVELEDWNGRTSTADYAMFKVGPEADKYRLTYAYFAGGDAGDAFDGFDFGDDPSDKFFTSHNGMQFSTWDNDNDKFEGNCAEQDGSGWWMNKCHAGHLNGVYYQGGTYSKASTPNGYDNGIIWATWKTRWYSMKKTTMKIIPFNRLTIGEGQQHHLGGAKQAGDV
# Description: Incorporation of radiolabelled substrates into fibrin was investigated by induction of an in vitro human plasma clot in the following manner. To a siliconised 5 ml glass vial was added, (a) 800 μl of Tris(hydroxymethyl)aminomethane buffered saline pH 7.5 containing calcium chloride (50 mM Tris, 150 mM sodium chloride, 4 mM calcium chloride.), (b) about 40 μl of physiological salt solution containing 100 units of thrombin per ml, (c) about 400 μl of human plasma containing the radiolabelled substrate at a concentration of typically 10 kBq/ml. To aid induction of clot a roughened glass rod was added to the reaction vial. Control vials were prepared similarly but with the omission of thrombin and calcium chloride.
# After incubation of the test solution at ambient laboratory temperature (ca. 20° C.) for 60 minutes the reaction was discontinued with the addition of about 400 μl of a cold solution of 33.5 mM ethylenediaminetetra-acetic acid disodium salt. Clots were separated from serum by vacuum filtration onto […] nitrocellulose filters (pre-soaked in 1.5% BSA/tris(hydroxymethyl)aminoethae buffered saline pH 7.5 containing 0.1% Tween 20) and washed with about 2×10 ml of tris(hydroxymethyl)aminomethane buffered saline pH 7.5 containing Tween 20 to a final concentration of 0.1% v/v. The proportion of total radioactivity was calculated by counting in suitable detection apparatus.
# The fraction of radioactivity retained on the filter, after subtraction of the non-specific binding determined from the control, is a measure of incorporation into the filtered clots.
# [2] = Incorporation into clots induced in a rat model (rat inferior vena cava model); format: in vivo, rat (Male Wistar); settings: for % id/g (clot) / Rel. Conc. (cpm/g of clot by dose/g animal): sacrificed after 60 min
# Description: The rats (Male Wistar, 250–350 g) were anaesthetised with 15% urethane. After laparotomy, the vena cava was isolated and freed of surrounding fat tissue. […] The compounds were injected 5 min (fresh clot) and 60 min (aged clot) post-induction. After 60 min the animals were sacrificed and the clot removed, weighed and counted. Other tissues e.g. blood, lung, heart, were also dissected and counted. The uptake of tracer into the clot was determined as the relative concentration (cpm/g of clot by dose/g animal) and clot to background tissue.
# [3] = Aged Clots: injected 60 min post-induction
# [4] = Fresh Clots: injected 5 min post-induction
% specific uptake [1] [%],% retained (no thrombin) [1] [%],% retained (with thrombin) [1] [%],in vitro clot uptake (in words) ([1]; in vitro clot),Substance,Clot/blood ([2]; Aged Clots),Clot/heart ([2]; Aged Clots),Clot/liver ([2]; Aged Clots),Clot/lung ([2]; Aged Clots),"% id/g (clot) [2, 3] [% id/g]","Rel. Conc. (cpm/g of clot by dose/g animal) [2, 3]",Clot/blood ([2]; Fresh Clots),Clot/heart ([2]; Fresh Clots),Clot/liver ([2]; Fresh Clots),Clot/lung ([2]; Fresh Clots),"% id/g (clot) [2, 4] [% id/g]","Rel. Conc. (cpm/g of clot by dose/g animal) [2, 4]"
66.9,1.2,68.1,–,Adamantoyl-NQEQVSPYTLLKG-Pn216 (Adamantane1carbonyl-NQEQVSPYTLLKG-Pn216; also: 99mTc complex) [^99mTc-Cmpd 11],5,13,4,6,0.4 ± 0.3,1.2 ± 0.8,10,24,11,11,1.1 ± 0.4,3.3 ± 1.1
55.1,8.2,63.3,–,Fmoc-NQEQVSP(I-Y)TLLKG-Pn216 [^99mTc-Cmpd 26],7,31,54,12,4.0 ± 0.9,12.9 ± 3.5,16,38,16,11,14.1 ± 10,41.4 ± 28
38.4,0.2,38.6,–,Ac-NQEQVSPYTLLKG-NH2 [^123I-Cmpd 2],24,23,20,12,5.5 ± 1.7,14.5 ± 3.9,7,19,21,10,4.9 ± 0.8,14.5 ± 2.2
7.6,0.1,7.7,significant reduction in uptake,Ac-NQEQ(D-V)(D-S)P(D-Y)TLL(D-K)G-Pn216 [^99mTc-Cmpd 31],0.6,9,2,4,0.2 ± 0.1,0.6 ± 0.2,0.6,2,3,1,0.3 ± 0.2,0.9 ± 0.6

Substance,% specific uptake [1] [%],% retained (no thrombin) [1] [%],% retained (with thrombin) [1] [%],in vitro clot uptake (in words) ([1]; in vitro clot),Clot/blood ([2]; Aged Clots),Clot/heart ([2]; Aged Clots),Clot/liver ([2]; Aged Clots),Clot/lung ([2]; Aged Clots),"% id/g (clot) [2, 3] [% id/g]","Rel. Conc. (cpm/g of clot by dose/g animal) [2, 3]",Clot/blood ([2]; Fresh Clots),Clot/heart ([2]; Fresh Clots),Clot/liver ([2]; Fresh Clots),Clot/lung ([2]; Fresh Clots),"% id/g (clot) [2, 4] [% id/g]","Rel. Conc. (cpm/g of clot by dose/g animal) [2, 4]"
Ac-LEFDTQSKNILG-Pn216 (also: 99mTc complex) [^99mTc-Cmpd 47],49.8,0.1,49.9,–,1,46,44,24,0.5 ± 0.3,1.5 ± 0.8,0.8,3,1,1,0.8 ± 0.7,2.2 ± 2.0
